Measurements published in patent US10336762B2 (priority 2017, dated 2019).
Like-named read-outs stand apart in the source and are kept apart here.

Tests used:
TNFα = experiment: cells; assay type: cell-based, human; settings: LPS-stimulated human monocytes, read-out: EC50 TNF
IRAK4 enzyme = IRAK4 enzyme (Homo sapiens (Human), UniProt Q9NWZ3); experiment: biochemical; assay type: biochemical; settings: IRAK4 enzyme, 500 μM ATP
[1] = Homo sapiens, Monocyte, TNFα content
[2] = Homo sapiens, Monocyte, TNFα by TR-FRET

IRAK4 enzyme, sequence (Q9NWZ3 whole entry): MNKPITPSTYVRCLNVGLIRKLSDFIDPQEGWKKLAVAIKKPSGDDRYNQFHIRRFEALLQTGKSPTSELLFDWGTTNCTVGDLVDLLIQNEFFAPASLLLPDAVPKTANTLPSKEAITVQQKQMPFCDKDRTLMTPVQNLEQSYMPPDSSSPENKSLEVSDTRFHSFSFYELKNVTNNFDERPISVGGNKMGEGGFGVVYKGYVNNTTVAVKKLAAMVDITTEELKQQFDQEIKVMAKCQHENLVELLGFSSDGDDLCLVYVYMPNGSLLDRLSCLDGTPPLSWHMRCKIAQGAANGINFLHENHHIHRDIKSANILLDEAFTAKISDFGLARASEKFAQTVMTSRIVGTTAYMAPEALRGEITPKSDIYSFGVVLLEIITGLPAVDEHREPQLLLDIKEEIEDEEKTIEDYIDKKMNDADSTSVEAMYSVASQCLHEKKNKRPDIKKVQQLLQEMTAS

Structure (SMILES) | EC50 (TNFα; [1]) [nM] | IC50 (IRAK4 enzyme; TR-FRET (HTRF)) [nM] | EC50 (TNFα; [2]) [nM] | IC50 (IRAK4 enzyme; TR-FRET) [nM] | EC50 (TNFα; TNFα content) [nM]
CC(C)(O)[C@H](F)CNC(=O)c1cnc(-c2ccc3cc(C#N)cnn23)cc1N[C@H]1CC[C@H](c2nncs2)CC1 [Example 642, 4-(((1r,4R)-4-(1,3,4-thiadiazol-2-yl)cyclo-hexyl)amino)-6-(3-cyanopyrrolo[1,2-b]pyridazin-7-yl)-N-((R)-2-fluoro-3-hydroxy-3-methylbutyl)nicotinamide] | 13 | < 1 | – | – | –
Cn1cc(CNC(=O)c2cnc(-c3ccc4cc(C#N)cnn34)cc2NC23CCC(O)(CC2)CC3)cn1 [Example 926, 6-(3-cyanopyrrolo[1,2-b]pyridazin-7-yl)-4-((4-hydroxybicyclo[2.2.2]octan-1-yl)amino)-N-((1-methyl-1H-pyrazol-4-yl)methyl)nicotinamide] | – | – | 192 | 2 | –
CC(C)(O)[C@H](F)CNC(=O)c1cnc(-c2ccc3cc(C#N)cnn23)cc1NC1C2CNCC1C2 (single isomer, unassigned) [Example 26] | – | – | – | 3 | 182
CC(N)(CCNc1cc(-c2ccc3cc(C#N)cnn23)ncc1C(=O)NC[C@@H](F)C(C)(C)O)C(F)F (stereo partly drawn) [Example 559, 4-((3-amino-4,4-difluoro-3-methylbutyl)amino)-6-(3-cyanopyrrolo[1,2-b]pyridazin-7-yl)-N-((R)-2-fluoro-3-hydroxy-3-methylbutyl)nicotinamide] | 78 | 1 | – | – | –
CC(C)(C)NC(=O)CNC(=O)c1cnc(-c2ccc3cc(C#N)cnn23)cc1NC12CCC(O)(CC1)CC2 [Example 813, N-(2-(tert-butylamino)-2-oxoethyl)-6-(3-cyano-pyrrolo[1,2-b]pyridazin-7-yl)-4-((4-hydroxy-bicyclo[2.2.2]octan-1-yl)amino)nicotinamide] | – | – | 92 | < 1 | –
CC(C)CC(=O)NC[C@H]1C[C@H](Nc2cc(-c3ccc4cc(C#N)cnn34)ncc2C(=O)NC[C@@H](F)C(C)(C)O)C1 [Example 826, 6-(3-cyanopyrrolo[1,2-b]pyridazin-7-yl)-N-((R)-2-fluoro-3-hydroxy-3-methylbutyl)-4-(((1r,3R)-3-((3-methylbutanamido)methyl)cyclobutyl)amino)nicotinamide] | – | – | 32 | < 1 | –
COC(=O)N1CC[C@@H]1CNc1cc(-c2ccc3cc(C#N)cnn23)ncc1C(=O)NC[C@@H](F)C(C)(C)O [Example 893, (R)-methyl 2-(((2-(3-cyano-pyrrolo[1,2-b]pyridazin-7-yl)-5-(((R)-2-fluoro-3-hydroxy-3-methylbutyl)carbamoyl)pyridin-4-yl)amino)methyl)azetidine-1-carboxylate] | – | – | 217 | 2 | –
CC(=O)N1CCC[C@@H](Nc2cc(-c3ccc4cc(C#N)cnn34)ncc2C(=O)NC[C@@H](F)C(C)(C)O)C1 [Example 253, 4-(((R)-1-acetylpiperidin-3-yl)amino)-6-(3-cyano-pyrrolo[1,2-b]pyridazin-7-yl)-N-((R)-2-fluoro-3-hydroxy-3-methylbutyl)nicotinamide] | 510 | – | – | 3 | –
CC(C)Nc1cc(-c2ccc3cc(C#N)cnn23)ncc1C(=O)NC1CC1CO (single isomer, unassigned) [Example 18, 6-(3-cyanopyrrolo[1,2-b]pyridazin-7-yl)-N-(2-(hydroxymethyl)cyclopropyl)-4-(isopropylamino)nicotinamide] | 757 | – | – | 9 | –
CC(C)(O)[C@H](F)CNC(=O)c1cnc(-c2ccc3cc(C#N)cnn23)cc1N[C@H]1CC[C@](C)(N)CC1 [Example 535, (R)-4-((4-amino-4-methylcyclohexyl)amino)-6-(3-cyanopyrrolo[1,2-b]pyridazin-7-yl)-N-(2-fluoro-3-hydroxy-3-methylbutyl)nicotinamide] | 999 | 2 | – | – | –
CC(=O)N[C@H]1CC[C@@H](Nc2cc(-c3ccc4cc(C#N)cnn34)ncc2C(=O)NC[C@@H](F)C(C)(C)O)CC1 [Example 320, 4-(((1s,4S)-4-acetamidocyclohexyl)amino)-6-(3-cyano-pyrrolo[1,2-b]pyridazin-7-yl)-N-((R)-2-fluoro-3-hydroxy-3-methylbutyl) nicotinamide] | 1910 | – | – | 3 | –
CC(C)(O)[C@H](F)CNC(=O)c1cnc(-c2ccc3cc(C#N)cnn23)cc1NC1CCS(=O)(=O)C1 (stereo partly drawn) [Example 76, 6-(3-cyanopyrrolo[1,2-b]pyridazin-7-yl)-4-((1,1-dioxidotetrahydrothiophen-3-yl)amino)-N-((R)-2-fluoro-3-hydroxy-3-methylbutyl)nicotinamide] | 348 | – | – | 1 | –
CCOc1cc(Nc2cc(-c3ccc4cc(C#N)cnn34)ncc2C(=O)NC[C@@H](F)C(C)(C)O)cnc1-c1cnco1 [Example 635, (R)-6-(3-cyanopyrrolo[1,2-b]pyridazin-7-yl)-4-((5-ethoxy-6-(oxazol-5-yl)pyridin-3-yl)amino)-N-(2-fluoro-3-hydroxy-3-methylbutyl)nicotinamide] | > 10000 | 8 | – | – | –
CC(C)(O)[C@H](F)CNC(=O)c1cnc(-c2ccc3cc(C#N)cnn23)cc1NC1CC2CCC(C1)O2 (stereo partly drawn) [Example 50, 4-(8-oxabicyclo[3.2.1]octan-3-ylamino)-6-(3-cyanopyrrolo[1,2-b]pyridazin-7-yl)-N-((R)-2-fluoro-3-hydroxy-3-methylbutyl) nicotinamide] | 351 | – | – | 3 | –
CC(C)(O)[C@H](F)CNC(=O)c1cnc(-c2ccc3cc(C#N)cnn23)cc1N[C@H]1CCC[C@@H](O)C1 [Example 2, 6-(3-cyanopyrrolo[1,2-b]pyridazin-7-yl)-N-((R)-2-fluoro-3-hydroxy-3-methylbutyl)-4-(((1S,3R)-3-hydroxycyclohexyl)amino)nicotinamide] | 9 | – | – | < 1 | –
CC(C)(O)[C@H](F)CNC(=O)c1cnc(-c2ccc3cc(C#N)cnn23)cc1N[C@H]1C[C@H](COC(=O)NC2CC2)C1 [Example 735, ((1R,3r)-3-((2-(3-cyano-pyrrolo[1,2-b]pyridazin-7-yl)-5-(((R)-2-fluoro-3-hydroxy-3-methylbutyl)carbamoyl)pyridin-4-yl)amino)cyclobutyl)methyl cyclopropylcarbamate] | 100 | 1 | – | – | –
CC(C)(O)[C@H](F)CNC(=O)c1cnc(-c2ccc3cc(C#N)cnn23)cc1NCc1ccccn1 [Example 171, (R)-6-(3-cyanopyrrolo[1,2-b]pyridazin-7-yl)-N-(2-fluoro-3-hydroxy-3-methylbutyl)-4-((pyridin-2-ylmethyl)amino) nicotinamide] | 382 | – | – | 6 | –
CC(=O)NC[C@H]1CC[C@H](Nc2cc(-c3ccc4cc(C#N)cnn34)ncc2C(=O)NC[C@@H](F)C(C)(C)O)CC1 [Example 557, 4-(((1r,4R)-4-(acetamidomethyl)cyclo-hexyl)amino)-6-(3-cyano-pyrrolo[1,2-b]pyridazin-7-yl)-N-((R)-2-fluoro-3-hydroxy-3-methylbutyl) nicotinamide] | 27 | < 1 | – | – | –
CC(C)(O)[C@H](F)CNC(=O)c1cnc(-c2ccc3cc(C#N)cnn23)cc1N[C@H]1C[C@H](CNCC(F)(F)F)C1 [Example 700, 6-(3-cyanopyrrolo[1,2-b]pyridazin-7-yl)-N—((R)-2-fluoro-3-hydroxy-3-methylbutyl)-4-(((1r,3R)-3-(((2,2,2-trifluoroethyl)amino)methyl)cyclobutyl)amino)nicotinamide] | 151 | 2 | – | – | –
